In data set [1] the test system is fish. Nature of the data set: Toxicity to fish compared with other pyrethroids. The source says: This invention is the culmination of the above findings.
The subject of data set [2] is pests. Nature of the data set: Pesticidal effectiveness, overall. The settings on record: in vivo. The source says: The pesticidal activity of the compounds according to this invention against green rice leafhoppers (Nephotettix cincticeps Uhler), rice stem borers (Chilo suppressalis Walker), tobacco cutworms (Prodenia litura […]) and houseflies (Musca domestica), as examples of the pests against which the same compounds are considered effective, the acute toxicity data on the same compounds as determined in rat by the oral route and the median tolerance limit (TLm) data on the same compounds as determined in killifish (Orizias latipes) and guppies (Lebistes reticulatus) are shown in Table 1 alongside the corresponding values for various control compounds. The pesticidal effects were determined by the procedures set forth in Test Examples 1 through 4, while the acute toxicity to rat was determined by the procedure set forth in Test Example 9 and the toxicity to fish was determined by the procedures set forth in Test Examples 6 and 7, all those Examples appearing hereinafter.

The test system of data set [3] is killifish (Orizias latipes). Nature of the data set: Fish toxicity test with killifish. Type of data set: in vivo. The settings on record: Table 1; 48 hrs. The gist of the method: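 Test compound dispensed from acetone solution into water at set concentrations; ten aerated-water killifish (~0.25 g, ~2.5 cm) held at 25±1° C. Deaths scored after 48 hours; TLm (median tolerance limit, ppm) determined.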

Data set [4] in a line: Fish toxicity test with guppies. Type of data set: in vivo, Lebistes reticulatus. The settings on record: guppy, water, guppies, 20° C., read-out: TLm (48 hrs.). The gist of the method:
(§1)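 Ten female guppies, 3–4 months old, held at 20 °C in water containing surfactant and test compound added in acetone solution. TLm (median tolerance limit, ppm) determined.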

Data set [5] deals with guppies (Lebistes reticulatus). Nature of the data set: Fish toxicity test with guppies. Type of data set: in vivo. The settings on record: Table 1; 48 hrs. The gist of the method:
as §1

The subject of data set [6] is carp (Cyprinus carpio L). Nature of the data set: Fish toxicity test with carp. Type of data set: in vivo. The settings on record: 48 hrs., 21±1° C.; 2880 min. Summed up: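 Compound in acetone with Tween-20 dispersed in 50 L aerated water at a set concentration; five carp (about 6 g, 6 cm) exposed at 21±1° C. Deaths checked after 48 h, and TLm (median tolerance limit, ppm) determined.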

In data set [7] the test system is tobacco cutworm (Prodenia litura). Nature of the data set: Utility Example-5: spray on soy bean leaves, tobacco cutworm larvae. The settings on record: 48 h, 2 days. Type of data set: in vivo. The procedure:
An acetone solution of one of the test compounds as mentioned in Table 13 and Tween-20 (the same surfactant as mentioned hereinbefore) was prepared. This acetone solution was diluted with water to prepare a solution containing the test compound in a predetermined concentration. Leaves of soy bean in pots were sprayed with the above diluted solution at the rate of 20 ml/pot and, after one day, ten 3-instar larvae of tobacco cutworm (Prodenia litura) were released on the leaves. The pots were kept in a constant-temperature chamber at 25° C.

Data set [8] can be described thus: Acute toxicity test in rat by the oral route. Type of data set: in vivo. The settings on record: in vivo, male rat, in olive oil, after 7 days. The source says:
(§2) Acute toxicity test in rat by the oral route

The test system of data set [9] is rat. Nature of the data set: Acute toxicity test in rat by the oral route. Type of data set: in vivo. The settings on record: Table 1, rat, 10080 min.
Text: as §2

Data set [10] concerns crop plants. Nature of the data set: Phytotoxicity test. Type of data set: in vivo. The settings on record: 2,000 ppm solution on leaves, after 10 days. An excerpt:
A 2,000 ppm solution of each of the cis- and trans-isomers and a 50:50 mixture of cis- and trans-isomers of Compound (1) and of Compound (2), and a 50:50 mixture of the cis- and trans-isomers of Compound (B) and Compound (E) was applied to the leaves of the following crop plants.
After 10 days, the crop plants were examined for their phytotoxicities.

SMILES strings stand for the structures.

In general, mortality refers to the share of the test organisms that died. Higher therefore signals a strong lethal effect. As usually defined, the LD50 is the dose at which mortality reaches 50%. Low readings indicate a more toxic substance, high ones a less toxic substance.

Take `C#CC(OC(=O)[C@@H]1[C@@H](C=C(Cl)Cl)C1(C)C)c1cccc(Oc2ccc(Cl)cc2)c1` (relative stereo) [Compound (2) trans-]: the “toxicity to fish in words” value in data set [1] was “by far low in toxicity to fish”. Further, the “pesticidal effectiveness in words” value in [2] is “outstanding in pesticidal activity against various pests”.

On to `C#CC(OC(=O)C1C(C=C(Cl)Cl)C1(C)C)c1cccc(Oc2ccc(Cl)cc2)c1` (stereo not drawn) [Compound (2) cis-/trans- = 50:50, 3-(4-chlorophenoxy)-α-ethynylbenzyl 2,2-dimethyl-3-(2,2-dichlorovinyl)cyclopropanecarboxylate], for which the “Toxicity to fish TLm, killifish” value in [3] is > 10 ppm. Also, the LC50 at 48 h in data set [4] was > 10 µg/mL. The “Toxicity to fish TLm, guppy” value in data set [5] is given as > 10 ppm. Also, the “TLm, Carp (48 hrs.)” value in [6] amounted to 2.8 ppm. For the same molecule, in [7], the mortality at 6.5 ppm amounted to 100% and the mortality at 13 ppm is 100%. Also, the LD50 at 168 h in [8] was > 3000 mg/kg. Moreover, the “Acute oral toxicity to rat LD50” value in data set [9] is reported as > 3000 mg/kg.

On to `CC1(C)C(C=C(Cl)Cl)C1C(=O)OCc1cccc(Oc2ccccc2)c1` (stereo not shown) [Compound (B), Permethrin], for which, in [4], the LC50 at 48 h was < 0.5 µg/mL. The “Toxicity to fish TLm, guppy” value in data set [5] is listed as < 0.5 ppm. Besides, in data set [7], the mortality at 6.5 ppm came out at 60% and the mortality at 13 ppm amounted to 90%. In [10], the phytotoxicity result is given as “did not cause any injury to each one of the crop plants”. For the same molecule, in data set [8], the LD50 at 168 h was 300 mg/kg.
